Results reported in patent publication US20130156768A1, “COMBINATION OF ANTI-CTLA4 ANTIBODY WITH BRAF INHIBITORS FOR THE SYNERGISTIC TREATMENT OF PROLIFERATIVE DISEASES” (Bristol-Myers Squibb Company, priority 2010, published 2013).

What was measured:
SA1N fibrosarcoma = assay: Antitumor activity in the SA1N fibrosarcoma tumor model; type: in vivo
Protocol: In addition, combination of both agents synergistically expanded antigen-specific T cells when dosed concurrently.
In the SA1N tumor model, the effect of the combination of both agents was investigated under either a concurrent dosing regimen or a sequential schedule.
Sa1N tumors were implanted s.c. and treatments were administered as follows: Methyl {5-[2-chloro-2-methylphenyl)-1-hydroxy-3-oxo-2,3-dihydro-1H-isoindol-1-yl]-1H-benzimidazol-2-yl}carbamate, […], 20 mg/kg, Q4D×3, starting on day 17.

OVA-specific T cells [1] = assay: Second study in the OVA adoptive transfer model (OVA-specific T cell responses); type: in vivo, murine; settings: agent added to CTLA-4 mAb, FIG. 5
Excerpt: In addition, combination of both agents synergistically expanded antigen-specific T cells when dosed concurrently. The effect of this promising combination was further investigated in a) a tumor model sensitive to CTLA-4 blockade (SA1N fibrosarcoma); b) in the antigen (OVA)-specific T cell model to assess the effect of Methyl {5-[2-chloro-2-methylphenyl)-1-hydroxy-3-oxo-2,3-dihydro-1H-isoindol-1-yl]-1H-benzimidazol-2-yl}carbamate at different dose levels and compared its activity to another BRAF inhibitor (EXT-000153, Genentech) and EVRI.
Previously, the unexpected expansion of antigen-specific T cells with the use of Methyl {5-[2-chloro-2-methylphenyl)-1-hydroxy-3-oxo-2,3-dihydro-1H-isoindol-1-yl]-1H-benzimidazol-2-yl}carbamate+CTLA-4 mAb in an OVA adoptive transfer model was observed (see Example 2). Thus, a second study was designed to confirm these initial observations to determine the dose effect of Methyl {5-[2-chloro-2-methylphenyl)-1-hydroxy-3-oxo-2,3-dihydro-1H-isoindol-1-yl]-1H-benzimidazol-2-yl}carbamate and to determine whether this phenomenon could also be elicited by other RAF inhibitors. In addition, EVRI, an EGFR/VEGFR inhibitor which inhibits the MAPK pathway was also included in this experiment.

CT26 colon carcinoma = assay: Antitumor activity in the murine CT26 colon carcinoma model; type: in vivo; settings: for % TGI: CT26
Excerpt: Thus, there was an interest in determining whether a potentiation of an antitumor immune response could be achieved by the combination of a CTLA-4 blocking mAb and a BRAF inhibitor in a murine CT26 colon carcinoma model.
Pharmacology studies are currently being conducted in support of the proposed clinical trial evaluating the antitumor activity of the BRAF inhibitor Methyl {5-[2-chloro-2-methylphenyl)-1-hydroxy-3-oxo-2,3-dihydro-1H-isoindol-1-yl]-1H-benzimidazol-2-yl}carbamate, and ipilimumab in subjects with advanced melanoma. Efficacy studies were conducted in the CT26 colon carcinoma, a tumor model sensitive to CTLA-4 blockade.
Two different combination schedules were evaluated, concurrent and sequential. In the concurrent setting, Methyl {5-[2-chloro-2-methylphenyl)-1-hydroxy-3-oxo-2,3-dihydro-1H-isoindol-1-yl]-1H-benzimidazol-2-yl}carbamate (100 mg/kg, p.o.) was administered every other day for […] while CTLA-4 mAb (20 mg/kg, i.p.) was dosed every 4 days for 3 doses starting on day 5. In the sequential setting, Methyl {5-[2-chloro-2-methylphenyl)-1-hydroxy-3-oxo-2,3-dihydro-1H-isoindol-1-yl]-1H-benzimidazol-2-yl}carbamate (100 mg/kg, p.o.) was dosed every other day for 4 doses from day 4-10 while CTLA-4 mAb (20 mg/kg, i.p.) was dosed every 4 days for 3 doses starting on day 11. Control groups consisted of each agent dosed in combination with vehicle control following the same schedule.

OVA-specific T cells [2] = assay: Model of antigen-induced T-cell proliferation (OVA adoptive transfer, OVA-specific tetramer staining); type: in vivo, C57BL6 mice; settings: CTLA-4 mAb 20 mg/kg days 1, 3; BRAF inhibitor 100 mg/kg days 1, 3, 5; erlotinib 100 mg/kg p.o. daily days 1-5; FIG. 3
Protocol: The effect of the combination of a BRAF inhibitor and CTLA-4 mAb was evaluated in a model of antigen-induced T-cell proliferation. In this model, T cells specific for the antigen ovalbumin (OVA) were adoptively transferred into naive C57BL6 mice on study day −1. On Study Day 0, animals were challenged with 250 ug of an OVA peptide (i.v.). Animals were reandomized and divided into groups of 5. Treatments were administered as follows: CTLA-4 mAb—20 mg/kg—study days 1 and 3; Methyl {5-[2-chloro-2-methylphenyl)-1-hydroxy-3-oxo-2,3-dihydro-1H-isoindol-1-yl]-1H-benzimidazol-2-yl}carbamate—100 mg/kg—study days 1, 3, and 5. In addition, another study group received erlotinib (TARCEVA®) daily at 100 mg/kg, p.o. from study days 1 through 5. Combination groups consisted of Compound Ia and CTLA-4 mAb or erlotinib+CTLA-4 mAb following the same schedules. Control animals received the OVA challenge and no further treatment. Expansion of OVA-specific T cells was measured prior to OVA challenge and on days 2, 5, 7 and 16 by OVA-specific tetramer staining.

SMILES | toxicity of extended dosing (SA1N fibrosarcoma; SA1N tumor model, 7 doses used in the concurrent regimen) | complete regressions (SA1N fibrosarcoma; SA1N, sequential treatment: BRAF inhibitor 100 mg/kg Q2Dx4 from day 10, CTLA-4 mAb 20 mg/kg Q4Dx3 from day 17) | effect on the OVA-specific T cell expansion elicited by CTLA-4 mAb (OVA-specific T cells [1]) | % TGI (CT26 colon carcinoma; concurrent schedule, Day 26, BRAF inhibitor 100 mg/kg p.o. every other day x7 from day 4, CTLA-4 mAb 20 mg/kg i.p. every 4 days x3 from day 5) | % TGI (CT26 colon carcinoma; sequential schedule, day 26, BRAF inhibitor 100 mg/kg p.o. every other day x4 day 4-10, CTLA-4 mAb 20 mg/kg i.p. every 4 days x3 from day 11) | complete regressions (CR) (CT26 colon carcinoma; CT-26 colon carcinoma model) | OVA tetramer response (expansion of OVA-specific T cells) (OVA-specific T cells [2])
COC(=O)Nc1nc2cc(C3(O)c4ccccc4C(=O)N3c3cc(Cl)ccc3C)ccc2[nH]1 (centres unmarked) | toxic | no regression | enhanced CTLA-4 blockade OVA-specific T cell expansion in a dose-related manner | 70% | 77% | 1 CR | effect similar to CTLA-4 mAb
C#Cc1cccc(Nc2ncnc3cc(OCCOC)c(OCCOC)cc23)c1 [erlotinib, reference compound] |  |  |  |  |  |  | decreased the response
